In patent US8071793B2, “Macrolide compound” (National University Corporation Hokkaido University, priority 2006, dated 2011):
Converted amounts (≈) assume the structure as drawn.

Experiments:
[1] = test system: Meth A fibrosarcoma cells; assay: Anticancer activity in mice with transplanted Meth A fibrosarcoma cells (tumor weight); type: in vivo, Balb/c mouse; conditions: for Proliferation-inhihition rate (%): 1/3 of the whole volume at 7th, 9th and 11th days, tumor weight at 21st day, female Balb/c mouse
Description: A compound represented by Formula (8) (50 to 500 μg/kg) that solved in ethanol or 5-FU (10 mg/kg) was administered to an 8-week old female Balb/c mouse (Japan SLC) having approx. 1×10^5 of Meth A fibrosarcoma cells (Kitasato Institute) intraperitoneally transplanted therein by ⅓ of the whole volume at 7th, 9th and 11th days intravenously (but 5-FU administered intraperitoneally) to measure tumor weight at 21st day. Using a control mouse to which normal saline solution was administered in lieu of a test compound, anticancer activity on each compound was expressed in number according to a formula of proliferation-inhibition rate (%)=(1−(sample/blank))×100.

[2] = test system: human Burkitt's lymphoma cell line (Raji, ATCC No. CRL-86); assay: Proliferation inhibition of human Burkitt's lymphoma cell line Raji (Cell Counting Kit-8); type: cell-based; conditions: Raji cells, 72 hours culture, Cell Counting Kit-8, absorbance 450 nm; for IC50: Homo sapiens, read-out: IC50 (compound concentration with a proliferation-inhibition rate of 50%), Raji
Description: (§1) Human BuRkitt's lymphoma cell line (DG-75, ATCC No. CRL-2675) or human Burkitt's lymphoma cell line (Raji, ATCC No. CRL-86) was suspended in an RPMI-1640 medium (SIGMA) (hereinafter called culture solution) containing 10% calf serum (Moregate) and 10% fetal bovine serum (Hyclone) so as to set the cell number at 1×10^5/mL. After 50 μL of the cell suspension was added to a 96-well microplate, 49 μL of the above culture solution was added thereto to set the whole volume at 99 μL. Compounds represented by Formulae (6) to (11) that solved in DMSO, 5-FU (Wako) or doxorubicin (Wako) (all 0.0001 to 10 μg/mL) were each added to one well by 1 μL, and cultured with a CO2 concentration of 5% at 37° C. for 72 hours. After culturing, 10 μL of Wako cell Counting Kit-8 (Wako) was added to each well and subjected to color reaction in a CO2 incubator for 3 hours. Proliferation-inhibition rate was calculated from absorbance values measured with a microplate reader at 450 nm (reference wavelength: 620 nm) using the following expression to determine a compound concentration in a culture solution with a proliferation-inhibition rate of 50% as IC50 value.

[3] = test system: Human BuRkitt's lymphoma cell line (DG-75, ATCC No. CRL-2675); assay: Proliferation inhibition of human Burkitt's lymphoma cell line DG-75 (Cell Counting Kit-8); type: cell-based; conditions: DG-75 cells, 72 hours culture, Cell Counting Kit-8, absorbance 450 nm; for IC50: Homo sapiens, read-out: IC50 (compound concentration with a proliferation-inhibition rate of 50%), DG-75
Description: as §1

[4] = Solubility in solvents (physicochemical description); conditions: qualitative, organic solvents and water

Row | Structure (SMILES) | Solubility [4] | IC50 [3] [µg/mL] | IC50 [2] [µg/mL] | also measured
1 | O=c1[nH]cc(F)c(=O)[nH]1 [Compound 5-FU, 5-FU, reference compound] | – | – | – | Proliferation-inhihition rate (%) ([1]; 10000 μg/kg (10 mg/kg), intraperitoneally): 60.2%; IC50 (compound concentration with a proliferation-inhibition rate of 50%), Raji [2]: 3.0 µg/mL; IC50 (compound concentration with a proliferation-inhibition rate of 50%), DG-75 [3]: 0.9 µg/mL
2 | C=C1/C=C(\C)C(C)CC(O)CC(=O)C(O)C(O)C(C)CC(C)OC(=O)C(C)C(O)CCCCC2OC2CC(C)C1 (stereo not drawn) [Compound 6] | soluble in alcohol, chloroform, ethyl acetate and acetone, insoluble in hexane and water | 0.02 (≈ 0.0353 µM) | – | –
3 | C=C1/C=C(\C)C(C)CC(O)CC(=O)C(O)C(O)C(C)CC(C)OC(=O)/C(C)=C/CCCCC2OC2CC(C)C1 (stereo not drawn) [Compound 7] | soluble in alcohol, chloroform, ethyl acetate and acetone, insoluble in hexane and water | 0.4 (≈ 0.729 µM) | – | –
4 | C=C1CC2C/C=C/C(O)C(C)/C(C)=C\C(=O)OC(CC(C)C(C)O)C(C)C/C=C/C(C)(O)C(O)(C1)O2 (stereo not drawn) [Compound 8] | soluble in chloroform, acetone, ethyl acetate, ethanol and methanol, insoluble in water and hexane | 0.002 (≈ 0.00395 µM) | 0.003 (≈ 0.00592 µM) | Proliferation-inhihition rate (%) ([1]; 50 μg/kg, intravenously): 5.3%; Proliferation-inhihition rate (%) ([1]; 200 μg/kg, intravenously): 62.2%; Proliferation-inhihition rate (%) ([1]; 500 μg/kg, intravenously): 54.3%; Proliferation-inhibition rate (anticancer activity) compared with 5-FU ([1]; Meth A fibrosarcoma mouse model, Formula (8) administered with a lower concentration than 5-FU): almost the same proliferation-inhibition rate (anticancer activity) as 5-FU
5 | C/C1=C/C(=O)C(C)(O)/C=C/CC(C)C(CC(C)C(C)O)OC(=O)/C=C(/C)C(C)C(O)/C=C/CC(O)C1 (stereo not drawn) [Compound 9] | soluble in chloroform, acetone, ethyl acetate and ethanol, insoluble in water and hexane | 0.9 (≈ 1.78 µM) | – | –
6 | C=C(C(O)CC)C(C)C(O)C1CCC/C(C)=C/C2OC(CC2C)C2OC(CC/C=C/CCC(C)C(=O)O1)CC2O (stereo not drawn) [Compound 10] | soluble in chloroform, acetone, ethyl acetate and ethanol, insoluble in water and hexane | 0.006 (≈ 0.0107 µM) | 0.01 (≈ 0.0178 µM) | –
7 | C/C=C/C/C=C/C(C)CC(O)C1CC2OC2/C=C/C(O)C(O)/C=C/CC(C)CC(=O)O1 (stereo not drawn) [Compound 11] | soluble in chloroform, acetone, ethyl acetate and ethanol, insoluble in water and hexane | 0.08 (≈ 0.184 µM) | 0.05 (≈ 0.115 µM) | –
8 | COc1cccc2c1C(=O)c1c(O)c3c(c(O)c1C2=O)C[C@@](O)(C(=O)CO)C[C@@H]3O[C@H]1C[C@H](N)[C@H](O)[C@H](C)O1 [Doxorubicin, doxorubicin, reference compound] | – | 0.04 (≈ 0.0736 µM) | 0.02 (≈ 0.0368 µM) | –
